Laboratory results taken from US4980377A, “1-(aminophenyl)-2-aminopropanone derivatives” (Laboratoire L. Lafon, priority 1984, dated 1990).
“Also recorded” adds a separate entry of the source. Where a name gives a salt, the structure may show the parent alone.

Key:
male mice = assay: Acute toxicity by intraperitoneal administration; format: in vivo, mouse; conditions: i.p.
Procedure: (§1) In the neuropsychopharmacological study which follows, a solution of CRL 41 153 in distilled water (pH 1.5) was administered intraperitoneally in a volume of 20 ml/kg to male mice and 5 ml/kg to male rats.

mice [1] = assay: Overall behavior and reactivities in mice; format: in vivo, mouse; conditions: i.p.
Procedure: as §1
(§2) Groups of three animals are observed before and then 0.25 hour, 0.50 hour, 1 hour, 2 hours, 3 hours and 24 hours after the administration of CRL 41 153.

rats [2] = assay: Overall behavior and reactivities in rats; format: in vivo, rat; conditions: i.p.
Procedure: as §1, §2

mice [3] = assay: Interaction with apomorphine in mice; format: in vivo, mouse; conditions: i.p.
Procedure: Groups of 6 mice receive CRL 41 153 0.5 hour before the subcutaneous injection of 1 or 16 mg/kg of apomorphine.

rats [4] = assay: Interaction with apomorphine in rats; format: in vivo, rat; conditions: i.p.
Procedure: CRL 41 153 is administered to groups of 6 rats 0.5 hour before the subcutaneous injection of 0.5 mg/kg of apomorphine.

mice [5] = assay: Interaction with reserpine; format: in vivo, mouse; conditions: i.p.
Procedure: Four hours after the intraperitoneal injection of 2.5 mg/kg of reserpine, groups of 6 mice receive CRL 41 153.

mice [6] = assay: Interaction with oxotremorine; format: in vivo, mouse; conditions: i.p.
Procedure: CRL 41 153 is administered to groups of 6 mice 0.5 hour before the intraperitoneal injection of 0.5 mg/kg of oxotremorine.

mice [7] = assay: Four plate test, traction and electric shock; format: in vivo, mouse; conditions: i.p.
Procedure: The test is performed on groups of 10 mice 30 minutes after the administration of CRL 41 153.

mice [8] = assay: Spontaneous motility; format: in vivo, mouse; conditions: i.p.
Procedure: 0.5 hour after they have received CRL 41 153, the mice (6 per dose, 12 control animals) are placed in an actimeter, where their motility is recorded for 30 minutes.

mice [9] = assay: Motility reduced by habituation to the enclosure; format: in vivo, mouse; conditions: i.p.
Procedure: After they have stayed In the actimeters for 18 hours, (he mice (6 per dose, 12 control animals) receive CRL 41 153. They are immediately returned to their respective enclosures and, half an hour later, their motility is recorded for 30 minutes.

mice [10] = assay: Motility reduced by hypoxic aggression; format: in vivo, mouse; conditions: i.p.
Procedure: Half an hour after they have received CRL 41 153, the mice (10 per dose, 20 control animals) are subjected to acute hypobaric anoxia [pressure reduction of 600 mm Hg (i.e. about 8×10^4 Pa) in 90 seconds; release of vacuum in 45 seconds] and are then placed in an actimeter, where their motility is recorded for 10 minutes.

mice [11] = assay: Interaction with barbital; format: in vivo, mouse; conditions: i.p., barbital 220 mg/kg
Procedure: Half an hour after the administration of CRL 41 153, groups of 10 mice receive an intraperitoneal injection of barbital (220 mg/kg).

mice [12] = assay: Behavioral despair; format: in vivo, mouse; conditions: forcibly immersed mice, i.p.
Text: Half an hour after they have received CRL 41 153, groups of 6 mice are placed in a beaker filled with water to a height of 6 cm. The total period of immobility between the 2nd and 6th minutes following immersion is noted.

dogs = assay: Cardiovascular study in anesthetized dogs; format: in vivo, dog; conditions: anesthetized dogs
How it was run: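 Measurements: blood pressure, heart rate, femoral and vertebral arterial flow, rectal temperature, skin colour, and for CRL 41 194 bile colour via bile-duct catheter. Doses rose stepwise 0.1–10 mg/kg intraduodenally in solution under nembutal anaesthesia; two dogs got CRL 41 194, four CRL 41 221.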

[13] = system: gravid White New Zealand female rabbits; assay: Teratogenicity in gravid White New Zealand rabbits; format: in vivo, rabbit; conditions: day 5 to day 18 of gestation; for Affected foetuses, %: normal limit 1.5%
How it was run: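 Fetuses harvested by cesarean on gestation day 29 were scored for number and for any malformation (limb blockade, anury, tail or skull defects, exencephaly).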

[14] = system: nigrostriatal dopaminergic system; assay: Interaction with alpha-methyltyrosine on stereotypies (difference from amphetamine); conditions: α-methyltyrosine (catecholamine synthesis blocked)

SMILES: CC(C)NC(C)C(=O)c1ccc(N)cc1 (stereo not shown) [CRL 41 153, 1-(4-aminophenyl)-2-isopropylaminopropanone dihydrochloride]
- LD0 (maximum non-lethal dose) (male mice): greater than 64 mg/kg
- LD60 (male mice): about 128 mg/kg
- Observed symptoms (mice [1]; 0.5 mg/kg): no particular symptoms
- Observed symptoms (mice [1]; 2 mg/kg, dihydrochloride): excitation of low intensity 0.5 hour after administration; also recorded: stereotypies for 1 hour; also recorded: an increase in the fear reaction (for 1 hour) and in the reactivity to touch (2 to 3 hours after administration)
- Observed symptoms (mice [1]; 8 mg/kg, dihydrochloride): excitation for 3 hours; also recorded: an increase in the fear reaction (for 3 hours) and in the reactivity to touch (for 24 hours)
- Hyperthermia (temperature change) (mice [1]; 32 mg/kg, 0.5 hour after administration): +1.1 °C
- Observed symptoms (mice [1]; 32 mg/kg, dihydrochloride): excitation and stereotypies for 3 hours; also recorded: an increase in the fear reaction (for 2 hours) and in the reactivity to touch (for 24 hours); also recorded: moderate mydriasis
- Observed symptoms (rats [2]; 0.25 mg/kg): no particular symptoms
- Observed symptoms (rats [2]; 1 mg/kg): mydriasis for 1 hour, reaching its maximum value 1 hour after administration
- Hyperthermia (maximum temperature change) (rats [2]; 4 mg/kg, 0.5 hour after administration): +1.9 °C
- Observed symptoms (rats [2]; 4 mg/kg, dihydrochloride): excitation 0.5 hour after administration and stereotypies for 2 hours; also recorded: hyperthermia for 3 hours; also recorded: mydriasis for 2 hours, reaching its maximum value 0.5 hour after administration
- Observed symptoms (rats [2]; 16 mg/kg, dihydrochloride): excitation 0.5 hour after administration; also recorded: stereotypies for 3 hours; also recorded: an increase in the fear reaction for 3 hours; also recorded: mydriasis for 3 hours, at a maximum 0.5 hour after administration
- Effect on hypothermia induced by apomorphine (mice [3]): at doses of 2 mg/kg, 8 mg/kg and 32 mg/kg, CRL 41 153 (which is hyperthermic at the said doses) opposes the hypothermia induced by apomorphine
- Effect on righting behavior and stereotypies induced by apomorphine (mice [3]): without modifying the righting behavior and stereotypy behavior
- Effect on stereotypies induced by apomorphine (rats [4]): as from a dose of 0.5 mg/kg, CRL 41 153 potentiates the stereotypies induced by apomorphine
- Effect on hypothermia induced by reserpine (mice [5]): as from a dose of 0.5 mg/kg, CRL 41 153 strongly opposes tbe hypothermia
- Effect on ptosis induced by reserpine (mice [5]): as from a dose of 0.5 mg/kg, CRL 41 153 strongly opposes tbe hypothermia and ptosis induced by reserpine
- Effect on hypothermic action of oxotremorine (mice [6]): at doses of 2 mg/kg, 8 mg/kg and 32 mg/kg, CRL 41 153 opposes the hypothermic action of oxotremorine
- Effect on trembling induced by oxotremorine (mice [6]): at doses of 8 mg/kg and 32 mg/kg, CRL 41 153 partially antagonizes the trembling induced by oxotremorine
- Action on the peripheral cholinergic symptoms (mice [6]; oxotremorine): moderate α-adrenergic stimulant effect
- Effect on convulsant effects of electric shock (mice [7]): at high doses, CRL 41 153 antagonizes the convulsant effects of electric shock
- Spontaneous motor activity (mice [8]): increases the spontaneous motor activity of mice
- Motor activity of mice accustomed to their enclosure (mice [9]): causes a distinct resumption in the motor activity of mice accustomed to their enclosure
- Motor recovery of mice after hypobaric hypoxia (mice [10]): as from a dose of 0.5 mg/kg, CRL 41 153 causes a distinct improvement in the motor recovery
- Duration of the sleep induced by barbital (mice [11]): reduces the duration of the sleep induced by barbital (total antagonism is obtained at doses of 8 mg/kg and 32 mg/kg)
- Time taken to fall asleep (barbital) (mice [11]): at doses of 0.5 to 32 mg/kg, CRL 41 153 increases the time taken to fall asleep
- Period of immobility due to despair (mice [12]): at doses greater than or equal to 0.5 mg/kg, CRL 41 153 reduces the period of immobility
- Effect of propanolol or atenolol on the action of the product (dogs): The increase in the femoral and vertebral flows is suppressed by propanolol
- Effects of isoprenaline on the blood pressure (dogs): does not modify the effects of isoprenaline on the blood pressure
- Reflex bradycardia caused by hypertension (dogs): The reflex bradycardia caused by hypertension is converted to tachycardia
- α-adrenergic stimulant effect (dogs): moderate α-adrenergic stimulant effect
- Blood flow through the femoral artery (dogs; oral, 2.5 to 5 mg/kg): increases the blood flow through the femoral artery
- Blood flow through the vertebral artery (dogs; oral, 2.5 to 5 mg/kg): increases the blood flow through the femoral artery and the blood flow through the vertebral artery at doses of 2.5 to 5 mg/kg
- Affected foetuses, number ([13]; 5 mg/kg daily): 0
- Total foetuses (live) ([13]; 5 mg/kg daily): 90
- Affected foetuses, % ([13]; 5 mg/kg daily): 0%
- Affected foetuses, number ([13]; 10 mg/kg daily): 1
- Total foetuses (live) ([13]; 10 mg/kg daily): 88
- Affected foetuses, % ([13]; 10 mg/kg daily): 1.13%
- Affected foetuses, number ([13]; 50 mg/kg daily): 0
- Total foetuses (live) ([13]; 50 mg/kg daily): 93
- Affected foetuses, % ([13]; 50 mg/kg daily): 0%
- Effect of alpha-methyltyrosine on the stereotypies induced by the substance [14]: only reduces them
